# Laboratory results published in US20150266864A1, “HETEROAROMATIC COMPOUNDS, METHOD FOR PREPARING THE COMPOUNDS, PHARMACEUTICAL COMPOSITIONS, USES AND METHOD FOR TREATING ACUTE AND CHRONIC PAIN” (CRISTÁLIA PRODUTOS QUÍMICOS FARMACÊUTICOS LTDA, priority 2012, published 2015).
# Counter-ions that a name gives are not always drawn.
# What was measured:
# [1] = test system: rats subjected to sciatic nerve CCI; experiment: Chronic constrictive injury (CCI) of the sciatic nerve, thermal hyperalgesia, paw withdrawal test; assay type: in vivo, rat
# Experimental: The chronic constrictive injury (CCI) was induced by sciatic nerve ligation according to the method described by Bennett and Xie [Bennett. G. J.; Xie, Y. K. Pain […], 33: 87-107]. Male Wistar rats, weighing 180-240 g, were anesthetized with a mixture of ketamine and xylazine (60 mg/kg and 5 mg/kg, respectively), intraperitoneally. Through an incision of 0.5 cm (parallel and spaced about 10 mm from the left femur) the sciatic nerve was identified. With a thin glass rod, a small segment of sciatic nerve was exposed and four loosely ligatures were placed around the sciatic nerve spaced 1 mm each other using a 3-0 silk suture thread. After the procedure, the skin was sutured and a topical antiseptic was applied.
# To assess animal behavior in response to hyperalgesic phenomenon resulting from sciatic nerve chronic constrictive injury, the model described by Hargreaves and Dubner was used [Hargreaves K., Dubner R., Brown F., Flores C., Joris J. Pain 1988, 32 (1): 77-88]. In this regard, paw withdrawal in response to a painful phenomenon was performed. This is a nociceptive test which involves a peripheral short thermal stimulus induced by the radiant heat of an incandescent lamp bulb. […] Radiant heat has an advantage over the other modes of thermal stimulation in that it produces no tactile stimulus. [Le Bars D., Gozariu M., Cadden S. W. Pharmacology Reviews, 2001, 53 (4), 597-652]. In this assay, a plantar test analgesimeter (ITC Life Science Inc, USA) was used.
# Animals were placed in transparent acrylic boxes with tempered glass pane floor for 40 minutes to acclimate. After this period, the radiant heat was applied to the footpads of animals's hindpaws until they make the movement of paw withdrawal. The paw withdrawal latency was defined as the time recorded from the beginning of the radiant heat stimulus and the paw withdrawal. For each paw, three latency records were made, and the average value was used to define the paw withdrawal time control The maximum time that each animal was exposed to the radiant heat source (cut-off) was defined as three times the paw withdrawal time control, to avoid tissue injuries in animals's paws.
# The day before surgery, rats, defined as “control before surgery”, were placed in acrylic boxes to the paw withdrawal test. On the 7th day after the surgery (CCI), the paw withdrawal test was again performed in order to verify neuropathic pain has been effectively developed in the left paw—defined as “post-surgery control.”
# The paw withdrawal test was assessed during the days 1, 3, and 7 of the treatment (with amitriptyline hydrochloride or the compounds of examples of the instant invention) and on days 1, 3, and 7 after treatment interruption.
# (§1) Differences were considered significant when p<0.05.
# Swiss-type male mice = experiment: RotaRod performance test, motor coordination
# Experimental: The assessment of motor coordination in mice, by the rotarod performance test, was carried out to detect any possible sedative or muscle relaxant effect caused by the compounds of the present invention, previously tested in acute and neuropathic pain models. This test was carried out according to the method of described by Dunham & Miya and animal motor coordination was evaluated using RotaRod apparatus [Dunham M. S. & Miya. R. T. (1957). J. Amer. Pharmac. Assoc. Sci. Edit. 1957, 46, 208-209].
# The RotaRod apparatus (Model 412 EFF, Insight Equipements, Brazil) is a device that measures motor coordination and thus evaluates balance alterations in mice. The apparatus consists of an acrylic box splited into four compartments with a rotational cylinder among them. The cylinder rotates at constant speed driven by a motor and regulated to the constant speed mode of 5-37 revolutions per minute (rpm). In this study the speed was set up to 9 rpm.
# To remain on the rotational cylinder, the animal needs to move around, so that the motor coordination can be quantified. The four compartments have drop detection system, through the impact, a microprocessor circuit, for timing the permanence of the animal at the compartment, and for counting the number of falls.
# The day before the test, Swiss-type male mice (19-25 g) were placed on the rotational cylinder, set up to the constant speed mode of 9 rpm for adaptation and learning. A group of 10 mice were used for each tested compound, and the total period spent on the rotational cylinder (in seconds) was recorded for a period of 180 seconds (cut off time) and it was accept a maximum of three falls for each animal. Motor coordination was assessed at times 0 (before treatment), 15, 30, 60 and 120 minutes after compounds administration at a dose of 32.25 μmol/kg.
# All compounds were administered intraperitoneally (ip).
# The Student's t-test was also used to compare means between two experimental groups. Differences were considered significant when p<0.05.
# rats subjected to SNL [2] = experiment: Spinal nerve ligation (SNL) L5 model, thermal hyperalgesia; assay type: in vivo, rat
# Experimental: (§2) This experimental model was proposed by Kim and Chung [Kim, S. H.; Chung, J. M. Pain 1992, 50: 355-363] and consists of ligation of spinal nerves. Male Wistar rats, 180-220 g, were anesthetized with a mixture of ketamine and xylazine (60 mg/kg and 5 mg/kg, respectively) intraperitoneally. After the dorsal region asepsy, an incision was made between L5 and S1. The L6 transverse process was removed for locating the nerves L4 and L5, which were carefully isolated, and tight ligation of the L5 nerve with 6.0 silk thread was made, interrupting flow of the axon of the nerve. After this procedure, para-spinal muscles and skin were sutured, and then a topical antiseptic was applied. False operated animals (sham) were subjected to the same procedure, however the spinal nerve was not ligated.
# This method aims to evaluate the animal behavior in response to hyperalgesic phenomenon resulting from the injury induced by the ligament of spinal nerve (L5). In this regard, paw withdrawal in response to thermal stimulus was used, and the thermal stimulus was induced by the radiant heat of an incandescent lamp bulb. The paw withdrawal test was performed as described for the assessment of thermal hyperalgesia in the sciatic nerve chronic constrictive injury model.
# as §1
# (§3) The treatment started on the 7th day after surgery. Compounds were diluted in water or DMSO and administered through intraperitoneal route on daily basis, during 7 days, at a dose of […]. The effectiveness of tested compounds was assessed on days 1, 3, and 7 days after treatment, always before the next administration of the compound. Latencies were also assessed on days 1, 3, and 7 after treatment interruption.
# rats subjected to SNL [3] = experiment: Spinal nerve ligation (SNL) L5 model, mechanical allodynia (digital Von Frey); assay type: in vivo, rat; conditions: after 7 days of treatment, 32.25 μmol/kg ip
# Experimental: as §2
# To evaluate the development of mechanical allodynia, digital analgesimeter (Model EFF301; Insight Equipments), digitalized version coupled to a pointed filament (Von Frey model variant) was used. This test aims to assess changes in tactile sensitivity in response to a mechanical stimulus as a result of a neural damage. The device consisted of a hand-held force transducer fitted with a sensor tip, through which a pressure with increasing strength is applied against the footpad of the animals hindpaw to assess the threshold of paw withdrawal, that is, the digital analgesimeter records the maximal strength, in grams (g), in which the animal withstands until the paw withdrawal reflex.
# Animals were placed in individual acrylic boxes and let to acclimate for 30 min before the beginning of the test. After this period, the thresholds of hindpaw withdrawal were determinded. For each hindpaw, five records of the withdrawal thresholds were made, and the average for each hindpaw was defined as the paw withdrawal threshold control.
# as §3, §1
# [4] = first day of treatment, 32.25 μmol/kg ip
# [5] = male, Swiss, mouse, in vivo, 30 min
# [6] = male, Swiss, mouse, in vivo, 60 min
# [7] = male, Swiss, mouse, in vivo, 120 min
# [8] = after 7 days of 32.25 μmol/kg ip
compound,measurement,setting,value
"CC(=O)O.OC1(c2ccc(Cl)cc2)CCN(CCc2cncnc2-c2ccc(F)cc2)CC1 [C16, 4-(4-chlorophenyl)-4-hydroxy-1-{2-[4-(4-fluorophenyl)pyrimidin-5-yl]ethyl}piperidinium acetate]","antinociceptive effect, paw withdrawal latency vs post-surgery control",[1]; [4],antinociceptive effects in the first day of treatment
same,"latency increase, statistical significance","[1]; first day of treatment, 32.25 μmol/kg ip, p<0.05 or p<0.005",the latency increase was statistically significant
same,animal residence time on the rotational cylinder compared to controls,"Swiss-type male mice; 15 minutes after administration, 32.25 μmol/kg","equal to the time observed for the negative control, and significantly higher than the time observed for the control amitriptyline hydrochloride"
same,Mice residence time on the rotational cylinder,"Swiss-type male mice; T 15 min after ip administration, 32.25 μmol/kg, 9 rpm, cut off 180 s, mean ± SEM",178.6 s
same,Mice residence time on the rotational cylinder,"Swiss-type male mice; T 30 min after ip administration, 32.25 μmol/kg (diazepam 2 mg/kg), 9 rpm, cut off 180 s, mean ± SEM",178.8 s
same,Mice residence time on the rotational cylinder,"Swiss-type male mice; T 60 min after ip administration, 32.25 μmol/kg (diazepam 2 mg/kg), 9 rpm, cut off 180 s, mean ± SEM",150.8 s
same,Mice residence time on the rotational cylinder,"Swiss-type male mice; T 120 min after ip administration, 32.25 μmol/kg (diazepam 2 mg/kg), 9 rpm, cut off 180 s, mean ± SEM",126.3 s
"CCOC(=O)C1(c2ccccc2)CCN(CCc2c[nH]nc2-c2ccc(F)cc2)CC1 [C18, Ethyl 1-{2-[3-(4-fluorophenyl)-1H-pyrazol-4-yl]ethyl}-4-phenylpiperidine-4-carboxylate]","antinociceptive effect, paw withdrawal latency vs post-surgery control",[1]; [4],antinociceptive effects in the first day of treatment
same,melting point,,138 to 139.5 °C
"Cl.Fc1ccc(-c2nocc2CCN2CCCCC2)cc1 [C5, 1-{2-[3-(4-fluorophenyl)-1,2-oxazol-4-yl]ethyl}piperidine hydrochloride]","antinociceptive effect, paw withdrawal latency vs post-surgery control",[1]; [4],antinociceptive effects in the first day of treatment
same,Mice residence time on the rotational cylinder,Swiss-type male mice; [5],178.6 s
same,Mice residence time on the rotational cylinder,Swiss-type male mice; [6],173.4 s
same,Mice residence time on the rotational cylinder,Swiss-type male mice; [7],179.2 s
same,Mice residence time on the rotational cylinder,"Swiss-type male mice; male, Swiss, mouse, in vivo, ip, 15 min",180.0 s
"Cl.Cl.Fc1ccc(-c2n[nH]cc2CCN2CCOCC2)cc1.O (hydrate or solvate) [C9, 4-{2-[3-(4-fluorophenyl)-1H-pyrazol-4-yl]ethyl}morpholine dihydrochloride monohydrate]",melting point,,113 to 126 °C (dec.)
"CC(=O)O.Fc1ccc(-c2ncncc2CCN2CCCCC2)cc1 [C6, 1-{2-[4-(4-fluorophenyl)pyrimidin-5-yl]ethyl}piperidinium acetate with 0.8 water molecules]","antinociceptive effect, paw withdrawal latency vs post-surgery control",[1]; [4],antinociceptive effects in the first day of treatment
"Fc1ccc(-c2n[nH]cc2CCN2CCCCC2)cc1 [C1, 1-{2-[3-(4-fluorophenyl)-1H-pyrazol-4-yl]ethyl}piperidine]",melting point,,145 to 146 °C
"CCN1CCN(CCc2c[nH]nc2-c2ccc(F)cc2)CC1.Cl.Cl.Cl.O.O.O (hydrate or solvate) [C12, 1-ethyl-4-{2-[3-(4-fluorophenyl)-1H-pyrazol-4-yl]ethyl}piperazine trihydrochloride trihydrate]",melting point,,226 to 237 °C (dec.)
"Cl.Cl.Fc1ccc(-c2n[nH]cc2CCN2CCCCC2)cc1.O (hydrate or solvate) [C3, 1-{2-[3-(4-fluorophenyl)-1H-pyrazol-4-yl]ethyl}piperidine dihydrochloride monohydrate]",melting point,,277 to 279 °C
"CN(C)CCC=C1c2ccccc2CCc2ccccc21 [amitriptyline hydrochloride, reference compound]",antinociceptive effect after treatment interruption,[1]; [8],the antinociceptive effect was observed only after the first day
same,paw withdrawal latency,"[1]; day 7 of treatment, 32.25 μmol/kg ip daily, p<0.005",significantly increased
same,effect on thermal hyperalgesia after treatment interruption,rats subjected to SNL [2]; [8],the analgesic effect is not maintained
same,"paw withdrawal latency, thermal hyperalgesia","rats subjected to SNL [2]; after 7 days of treatment, 32.25 μmol/kg ip",significantly increased
same,"paw withdrawal threshold, mechanical allodynia",rats subjected to SNL [3],no significant threshold increase
same,Mice residence time on the rotational cylinder,Swiss-type male mice; [5],151.0 s
same,Mice residence time on the rotational cylinder,Swiss-type male mice; [6],175.8 s
same,Mice residence time on the rotational cylinder,Swiss-type male mice; [7],161.8 s
